Measured values from patent publication US20240124441A1, “POLYMORPH OF LATREPIRDINE DIHYDROCHLORIDE” (BIGESPAS LTD., priority 2021, published 2024).
Read-outs that look alike come from different tables or passages of the source.

How the values were obtained:
[1] = Bioavailability study: Latrepirdine concentration in blood serum after oro-gastric gavage
Method: (§1) Those crystalline polymorphs and DMB-I were used in an animal study to evaluate absorption of crystalline forms of Latrepirdine from gastrointestinal tract into blood serum and brain tissues of the animals. Male Wistar rats were used in animal study. Rats were randomly divided into 5 groups, each group containing 28 animals, for administration of respective polymorphic forms of Latrepirdine. Respective polymorphic form of Latrepirdine was administered by oro-gastric gavage as a suspension in corn oil at a dose of 10 mg/kg. Animals were euthanized at 15, 30, 60, and 120 min after administration of Latrepirdine (7 animals at each timepoint) followed by collection of blood serum and brain tissue samples that were analyzed for Latrepirdine content by LCMS. Analyses were performed using Prominence LCMS-850 equipped with Kinetex C18 Phenomenex column. Statistical bi-factorial ANOVA analysis of analytical data was performed using Statistica-7.1. software.

[2] = Bioavailability study: Latrepirdine concentration in brain tissue after oro-gastric gavage; conditions: for Concentration of Latrepirdine in brain tissue: 10 mg/kg oro-gastric gavage, suspension in corn oil, rat, 10 mg/kg
Method: as §1

[3] = rat, in vivo, po
Method: as §1

[4] = rat, in vivo, po; remark: listed apart in the source
Method: as §1

Structure (SMILES): Cc1ccc2c(c1)c1c(n2CCc2ccc(C)nc2)CCN(C)C1 [Polymorph A, 2,8-dimethyl-5-[2-(6-methylpyridin-3-yl)ethyl]-3,4-dihydro-1H-pyrido[4,3-b]indole]
- Concentration of Latrepirdine in blood serum ([1]; 15 min after administration, 10 mg/kg oro-gastric gavage, suspension in corn oil, rat, listed as A, 10 mg/kg): 2.0 ng/mL
- Concentration of Latrepirdine in blood serum ([1]; 60 min after administration, 10 mg/kg oro-gastric gavage, suspension in corn oil, rat, listed as A, 10 mg/kg): 3.9 ng/mL
- Concentration of Latrepirdine in blood serum ([1]; 120 min after administration, 10 mg/kg oro-gastric gavage, suspension in corn oil, rat, listed as A, 10 mg/kg): 2.0 ng/mL
- concentration at 30 min ([1]; male, Wistar, rat, serum, oral, 10 mg/kg, Concentration of Latrepirdine in blood serum, 30 min after administration, 10 mg/kg oro-gastric gavage, suspension in corn oil, rat): 7 ng/mL
- Concentration of Latrepirdine in brain tissue ([2]; 15 min after administration, listed as A): 22.4 ng/mL
- Concentration of Latrepirdine in brain tissue ([2]; 30 min after administration, listed as A): 5.6 ng/mL
- Concentration of Latrepirdine in brain tissue ([2]; 60 min after administration, listed as A): 76.8 ng/mL
- Concentration of Latrepirdine in brain tissue ([2]; 120 min after administration, listed as A): 24.4 ng/mL

Structure (SMILES): Cc1ccc2c(c1)c1c(n2CCc2ccc(C)nc2)CCN(C)C1 [Polymorph B, 2,8-dimethyl-5-[2-(6-methylpyridin-3-yl)ethyl]-3,4-dihydro-1H-pyrido[4,3-b]indole]
- Concentration of Latrepirdine in blood serum ([1]; 15 min after administration, 10 mg/kg oro-gastric gavage, suspension in corn oil, rat, listed as B, 10 mg/kg): 5.9 ng/mL
- Concentration of Latrepirdine in blood serum ([1]; 30 min after administration, 10 mg/kg oro-gastric gavage, suspension in corn oil, rat, listed as B, 10 mg/kg): 5.6 ng/mL
- Concentration of Latrepirdine in blood serum ([1]; 60 min after administration, 10 mg/kg oro-gastric gavage, suspension in corn oil, rat, listed as B, 10 mg/kg): 7.4 ng/mL
- Concentration of Latrepirdine in blood serum ([1]; 120 min after administration, 10 mg/kg oro-gastric gavage, suspension in corn oil, rat, listed as B, 10 mg/kg): 1.0 ng/mL
- Concentration of Latrepirdine in brain tissue ([2]; 15 min after administration, listed as B): 23.5 ng/mL
- Concentration of Latrepirdine in brain tissue ([2]; 30 min after administration, listed as B): 34.2 ng/mL
- Concentration of Latrepirdine in brain tissue ([2]; 60 min after administration, listed as B): 54.4 ng/mL
- Concentration of Latrepirdine in brain tissue ([2]; 120 min after administration, listed as B): 29.7 ng/mL

Structure (SMILES): Cc1ccc2c(c1)c1c(n2CCc2ccc(C)nc2)CCN(C)C1 [Polymorph C, 2,8-dimethyl-5-[2-(6-methylpyridin-3-yl)ethyl]-3,4-dihydro-1H-pyrido[4,3-b]indole]
- Concentration of Latrepirdine in blood serum ([1]; 15 min after administration, 10 mg/kg oro-gastric gavage, suspension in corn oil, rat, listed as C, 10 mg/kg): 7.4 ng/mL
- Concentration of Latrepirdine in blood serum ([1]; 30 min after administration, 10 mg/kg oro-gastric gavage, suspension in corn oil, rat, listed as C, 10 mg/kg): 6.8 ng/mL
- Concentration of Latrepirdine in blood serum ([1]; 60 min after administration, 10 mg/kg oro-gastric gavage, suspension in corn oil, rat, listed as C, 10 mg/kg): 6.7 ng/mL
- Concentration of Latrepirdine in blood serum ([1]; 120 min after administration, 10 mg/kg oro-gastric gavage, suspension in corn oil, rat, listed as C, 10 mg/kg): 7.0 ng/mL
- Concentration of Latrepirdine in brain tissue ([2]; 15 min after administration, listed as C): 25.1 ng/mL
- Concentration of Latrepirdine in brain tissue ([2]; 30 min after administration, listed as C): 15.0 ng/mL
- Concentration of Latrepirdine in brain tissue ([2]; 60 min after administration, listed as C): 32.1 ng/mL
- Concentration of Latrepirdine in brain tissue ([2]; 120 min after administration, listed as C): 39.1 ng/mL

Structure (SMILES): Cc1ccc2c(c1)c1c(n2CCc2ccc(C)nc2)CCN(C)C1 [Polymorph DMB-I, 2,8-dimethyl-5-[2-(6-methylpyridin-3-yl)ethyl]-3,4-dihydro-1H-pyrido[4,3-b]indole]
- Concentration of Latrepirdine in blood serum ([1]; 15 min after administration, 10 mg/kg oro-gastric gavage, suspension in corn oil, rat, listed as DMB-I, 10 mg/kg): 12.8 ng/mL
- Concentration of Latrepirdine in blood serum ([1]; 30 min after administration, 10 mg/kg oro-gastric gavage, suspension in corn oil, rat, listed as DMB-I, 10 mg/kg): 10.0 ng/mL
- Concentration of Latrepirdine in blood serum ([1]; 60 min after administration, 10 mg/kg oro-gastric gavage, suspension in corn oil, rat, listed as DMB-I, 10 mg/kg): 9.7 ng/mL
- Concentration of Latrepirdine in blood serum ([1]; 120 min after administration, 10 mg/kg oro-gastric gavage, suspension in corn oil, rat, listed as DMB-I, 10 mg/kg): 10.4 ng/mL
- Cmax exceeds the Cmax of other polymorphic forms by ([1]; blood plasma, intragastric administration, versus the other four polymorphic forms): 12-240%
- Tmax ([1]; male, Wistar, rat, plasma, po, 10 mg/kg): 15 min
- Concentration of Latrepirdine in brain tissue ([2]; 15 min after administration, listed as DMB-I): 45.1 ng/mL
- Concentration of Latrepirdine in brain tissue ([2]; 30 min after administration, listed as DMB-I): 26.8 ng/mL
- Concentration of Latrepirdine in brain tissue ([2]; 60 min after administration, listed as DMB-I): 106.0 ng/mL
- Concentration of Latrepirdine in brain tissue ([2]; 120 min after administration, listed as DMB-I): 49.8 ng/mL
- Cmax exceeds the Cmax of other polymorphic forms by ([2]; brain tissue, intragastric administration, versus the other four polymorphic forms): 32-260%
- Median values of Cmax compared among the five tested polymorphic forms [3]: highest value
- Median values of Cmax compared among the five tested polymorphic forms [4]: highest value

Structure (SMILES): Cc1ccc2c(c1)c1c(n2CCc2ccc(C)nc2)CCN(C)C1 [Polymorph F, 2,8-dimethyl-5-[2-(6-methylpyridin-3-yl)ethyl]-3,4-dihydro-1H-pyrido[4,3-b]indole]
- Concentration of Latrepirdine in blood serum ([1]; 15 min after administration, 10 mg/kg oro-gastric gavage, suspension in corn oil, rat, listed as F, 10 mg/kg): 4.8 ng/mL
- Concentration of Latrepirdine in blood serum ([1]; 30 min after administration, 10 mg/kg oro-gastric gavage, suspension in corn oil, rat, listed as F, 10 mg/kg): 6.3 ng/mL
- Concentration of Latrepirdine in blood serum ([1]; 60 min after administration, 10 mg/kg oro-gastric gavage, suspension in corn oil, rat, listed as F, 10 mg/kg): 9.4 ng/mL
- Concentration of Latrepirdine in blood serum ([1]; 120 min after administration, 10 mg/kg oro-gastric gavage, suspension in corn oil, rat, listed as F, 10 mg/kg): 3.6 ng/mL
- Concentration of Latrepirdine in brain tissue ([2]; 15 min after administration, listed as F): 20.2 ng/mL
- Concentration of Latrepirdine in brain tissue ([2]; 30 min after administration, listed as F): 32.2 ng/mL
- Concentration of Latrepirdine in brain tissue ([2]; 60 min after administration, listed as F): 68.5 ng/mL
- Concentration of Latrepirdine in brain tissue ([2]; 120 min after administration, listed as F): 45.1 ng/mL
